Structures are written as SMILES. pKi: −log10 of the molar value.

The nature of data set [1]: Displacement of […]FMZ from Wistar rat cerebellum GABAA receptor by competitive radioligand assay. Type of data set: tissue-based.
Data set [2] in a line: Lipophilicity, log D of the compound in n-octanol at pH 7.4 by shake flask method. Type of data set: physicochemical.

With `CN1Cc2c(C(=O)OC(C)(C)C)ncn2-c2nccc(F)c2C1=O`, the pKi in data set [1] was 8.89.

The molecule `CN1Cc2c(C(=O)OC(C)(C)C)ncn2-c2ccnc(F)c2C1=O` had a pKi in data set [1] of 8.41.

Consider `CCOC(=O)c1ncn2c1CN(C)C(=O)c1nc(F)ccc1-2`, for which the pKi in data set [1] was 7.85.

On to `CCOC(=O)c1ncn2c1[C@@H]1CCCN1C(=O)c1cc(F)ccc1-2`, for which the logD in data set [2] was 1.85. Also, in data set [1], the pKi was 8.64.

As to `O=C(NCCCF)c1ncn2c1[C@@H]1CCCN1C(=O)c1c(Br)cccc1-2`, in data set [1], the pKi was less than 5.00.

In data set [1], `O=C(OCCCF)c1ncn2c1[C@@H]1CCCN1C(=O)c1c(Br)cccc1-2` showed a pKi of 8.49.

As to `O=C(NCCF)c1ncn2c1[C@@H]1CCCN1C(=O)c1c(Br)cccc1-2`, the pKi in data set [1] is less than 5.00.

With `O=C(OCCF)c1ncn2c1[C@@H]1CCCN1C(=O)c1c(Br)cccc1-2`, the pKi in data set [1] is 8.03.

For `CN1Cc2c(C(=O)OC(C)(C)C)ncn2-c2cccc(OCCF)c2C1=O`, in data set [1], the pKi is 8.96.

In turn, `CN1Cc2c(C(=O)OC(C)(C)C)ncn2-c2ccc(OCCF)cc2C1=O` registered a logD in data set [2] of 1.17. In data set [1], this molecule had a pKi of 9.28.

Take `CCOC(=O)c1ncn2c1CN(C)C(=O)c1cc(OCCF)ccc1-2`: the logD in data set [2] is 1.62. For the same molecule, in data set [1], the pKi was 8.64.

Regarding `CC(C)OC(=O)c1ncn2c1CN(C)C(=O)c1c(F)cccc1-2`, the pKi in data set [1] is 9.38.

On to `CN1Cc2c(C(=O)OC(C)(C)C)ncn2-c2cccc(F)c2C1=O`, for which, in data set [2], the logD was found to be 0.69. In data set [1], this molecule showed a pKi of 9.12.

`CC(C)(C)OC(=O)c1ncn2c1CN(CCF)C(=O)c1cc(F)ccc1-2` gave a pKi in data set [1] of 8.05.

In turn, `CCOC(=O)c1ncn2c1CN(CCF)C(=O)c1cc(F)ccc1-2` showed a pH-dependent lipophilicity (logD) in data set [2] of 1.54. For the same molecule, the pKi in data set [1] was 7.87.

In data set [1], `CN1Cc2c(C(=O)OC(C)(C)C)ncn2-c2ccc(F)cc2C1=O` gave a pKi of 8.72.

With `CCOC(=O)c1ncn2c1CN(CC)C(=O)c1cc(F)ccc1-2`, in data set [2], the logD came to 1.65. Further, the pKi in data set [1] was 7.97.

In turn, `CCOC(=O)c1ncn2c1CN(Cc1ccccc1)C(=O)c1cc(F)ccc1-2` came in with a logD in data set [2] of 1.44. The pKi in data set [1] was 8.54.

Consider `CN1Cc2c(C(=O)OCCCF)ncn2-c2ccc(F)cc2C1=O`, for which the logD in data set [2] was found to be 0.68. The pKi in data set [1] is less than 5.00.

Turning to `CN1Cc2c(C(=O)NCCF)ncn2-c2ccc(F)cc2C1=O`, the pKi in data set [1] is less than 5.00.

As for `CN1Cc2c(C(=O)NCCCF)ncn2-c2ccc(F)cc2C1=O`, the pKi in data set [1] was less than 5.00.

`CN1Cc2c(C(=O)OCCF)ncn2-c2ccc(F)cc2C1=O` yielded a logD in data set [2] of 1.12. The molecule further gave a pKi in data set [1] of 8.40.

In turn, `CCOC(=O)c1ncn2c1CN(C)C(=O)c1c(F)cccc1-2` had a logD in data set [2] of 1.25. Further, the pKi in data set [1] is 8.26.

`CC(C)(C)OC(=O)c1ncn2c1[C@@H]1CCCN1C(=O)c1c(Br)cccc1-2` [BRETAZENIL] had a pKi in data set [1] of 9.52.

In data set [2], `CCOC(=O)c1ncn2c1CN(C)C(=O)c1cc(F)ccc1-2` [FLUMAZENIL] registered a logD of 1.58. Also, in data set [1], the pKi is 8.89.

One may read the pKi as the Ki on a negative log10 scale, so that one unit is a factor of ten. A higher pKi goes with a low Ki. For orientation: logD means lipophilicity at a set pH, counting ionised and neutral species.

For the origin of these results see ChEMBL document CHEMBL2311530, “The development of potential new fluorine-18 labelled radiotracers for imaging the GABA(A) receptor” (Bioorg Med Chem Lett, 2013).
